What was measured:
[1] = molecular target: T1, N neuronal α-BGTX-insensitive (α4β2) (Rattus norvegicus, UniProt P09483+P12390); assay: Binding N neuronal α-BGTX-insensitive (α4β2) (ag); conditions: read-out: % Inhibition of Control Specific Binding @ 10 μM
T1 construct: rat cerebral cortex; from tissue; host or cells: rat cerebral cortex
Protocol: (§1) Radioligand binding assay methods utilized to measure the activity of compounds of the invention will be familiar to those skilled in the art. In each assay case, the assay components such as, for example, the cell-type, ligand, reference compound and the like, will be familiar to practitioners of such an assay.
(§2) Analysis and Expression of Results: Compounds of the invention were tested in the biochemical assays and percent inhibition of specific binding was determined. The specific ligand binding to the receptors is defined as the difference between the total binding and the nonspecific binding determined in the presence of an excess of unlabelled ligand. The results are expressed as a percent inhibition of control specific binding (100−((measured specific binding/control specific binding)×100)) obtained in the presence of test compounds.

[2] = test system: Cl^− channel (GABA-gated); assay: Binding Cl− channel (GABA-gated) (aa); set-up: species or system rat
Protocol: as §1, §2

KV channel = assay: Binding KV channel (aa); set-up: species or system rat
Protocol: as §1, §2

Adenosine A2A (h) = molecular target: T2, Adenosine A2A (h) (Homo sapiens, UniProt P29274); assay: Binding A2A (h) (ag); conditions: read-out: % Inhibition of Control Specific Binding @ 10 μM
T2 construct: expressed in transfected cells; host or cells: HEK-293 cells
T2 sequence (P29274 whole entry): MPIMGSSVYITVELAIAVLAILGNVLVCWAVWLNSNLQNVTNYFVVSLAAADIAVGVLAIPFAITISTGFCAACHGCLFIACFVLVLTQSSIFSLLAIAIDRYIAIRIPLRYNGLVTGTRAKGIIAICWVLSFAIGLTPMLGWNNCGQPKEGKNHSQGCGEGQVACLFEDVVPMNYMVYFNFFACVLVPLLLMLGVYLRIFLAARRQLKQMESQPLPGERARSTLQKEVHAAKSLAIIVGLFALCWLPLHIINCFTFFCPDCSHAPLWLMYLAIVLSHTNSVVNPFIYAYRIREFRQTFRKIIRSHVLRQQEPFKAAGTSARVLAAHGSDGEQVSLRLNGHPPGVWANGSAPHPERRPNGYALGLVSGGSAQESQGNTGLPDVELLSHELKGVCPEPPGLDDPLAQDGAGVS
Protocol: as §1, §2

MAO-A (h) = molecular target: T3, MAO-A (h) (Homo sapiens, UniProt P21397); assay: Enzyme assay MAO-A (h); type: biochemical; conditions: read-out: % Inhibition of Control Values @ 10 μM
T3 construct: human placenta; from tissue; host or cells: human placenta
T3 sequence (P21397 1-527): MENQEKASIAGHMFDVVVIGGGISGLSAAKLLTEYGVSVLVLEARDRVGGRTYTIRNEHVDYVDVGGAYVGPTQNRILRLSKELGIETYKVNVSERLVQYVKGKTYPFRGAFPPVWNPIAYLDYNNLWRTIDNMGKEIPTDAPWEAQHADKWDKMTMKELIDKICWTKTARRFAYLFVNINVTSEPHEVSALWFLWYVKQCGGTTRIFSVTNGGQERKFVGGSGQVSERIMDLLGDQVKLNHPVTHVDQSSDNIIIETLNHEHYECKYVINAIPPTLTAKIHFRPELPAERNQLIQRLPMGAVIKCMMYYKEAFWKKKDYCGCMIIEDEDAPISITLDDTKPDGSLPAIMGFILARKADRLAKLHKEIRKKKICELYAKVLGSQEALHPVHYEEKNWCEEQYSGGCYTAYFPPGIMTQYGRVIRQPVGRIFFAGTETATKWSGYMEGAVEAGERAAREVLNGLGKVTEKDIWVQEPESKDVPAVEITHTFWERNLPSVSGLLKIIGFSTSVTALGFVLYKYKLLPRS
Description: The enzyme assays provided below will be familiar to those skilled in the art.
Analysis and Expression of Results: The results are expressed as a percent of control specific activity ((measured specific activity/control specific activity)×100) obtained in the presence of the test compounds.

Angiotensin AT2 (h) = molecular target: T4, Angiotensin AT2 (h) (Homo sapiens, UniProt P50052); assay: Binding AT2 (h); conditions: AT2 (h) (aa), read-out: % Inhibition of Control Specific Binding @ 10 μM
T4 construct: expressed in transfected cells; host or cells: CHO cells
T4 sequence (P50052 1-363): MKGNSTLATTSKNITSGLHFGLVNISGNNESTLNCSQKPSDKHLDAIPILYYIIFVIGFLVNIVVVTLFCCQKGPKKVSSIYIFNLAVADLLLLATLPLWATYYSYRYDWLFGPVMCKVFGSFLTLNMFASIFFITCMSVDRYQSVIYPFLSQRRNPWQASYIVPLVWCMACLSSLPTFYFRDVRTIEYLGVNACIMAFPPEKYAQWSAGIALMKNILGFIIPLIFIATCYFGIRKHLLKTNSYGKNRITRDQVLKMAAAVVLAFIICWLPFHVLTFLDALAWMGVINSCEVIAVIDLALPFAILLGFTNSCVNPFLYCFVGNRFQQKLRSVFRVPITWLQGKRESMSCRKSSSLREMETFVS
Protocol: as §1, §2

[3] = test system: Ca^2+ channel (L, dihydropyridine site); assay: Binding Ca2+ channel (L, dihydropyridine site) (aa); set-up: species or system rat
Protocol: as §1, §2

Glucocorticoid GR (h) = molecular target: T5, Glucocorticoid GR (h) (Homo sapiens, UniProt P04150); assay: Binding GR (h) (ag); conditions: read-out: % Inhibition of Control Specific Binding @ 10 μM
T5 construct: IM-9 cells (cytosol); endogenous in cells; host or cells: IM-9 cells (cytosol)
T5 sequence (P04150 1-777): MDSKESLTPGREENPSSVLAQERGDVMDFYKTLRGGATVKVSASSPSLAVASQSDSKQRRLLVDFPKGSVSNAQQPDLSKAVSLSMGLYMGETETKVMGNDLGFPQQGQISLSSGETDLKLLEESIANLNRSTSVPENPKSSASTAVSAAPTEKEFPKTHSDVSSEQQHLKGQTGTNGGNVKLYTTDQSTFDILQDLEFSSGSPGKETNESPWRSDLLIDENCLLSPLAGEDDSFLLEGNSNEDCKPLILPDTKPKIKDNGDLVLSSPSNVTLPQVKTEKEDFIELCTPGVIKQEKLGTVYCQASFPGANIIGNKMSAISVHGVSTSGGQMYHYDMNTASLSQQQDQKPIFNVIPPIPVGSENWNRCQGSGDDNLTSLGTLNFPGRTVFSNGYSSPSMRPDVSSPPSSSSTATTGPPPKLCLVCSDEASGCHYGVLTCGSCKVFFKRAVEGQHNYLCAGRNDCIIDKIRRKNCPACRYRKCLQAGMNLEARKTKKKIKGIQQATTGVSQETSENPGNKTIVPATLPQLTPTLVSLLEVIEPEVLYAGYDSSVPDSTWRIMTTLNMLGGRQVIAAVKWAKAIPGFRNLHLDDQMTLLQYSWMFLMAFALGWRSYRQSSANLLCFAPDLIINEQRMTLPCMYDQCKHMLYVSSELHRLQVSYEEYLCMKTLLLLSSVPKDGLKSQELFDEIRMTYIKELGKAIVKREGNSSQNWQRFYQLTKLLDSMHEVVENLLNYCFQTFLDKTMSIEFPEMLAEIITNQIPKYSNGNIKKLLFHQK
Protocol: as §1, §2

Histamine H3 (h) = molecular target: T6, Histamine H3 (h) (Homo sapiens, UniProt Q9Y5N1); assay: Binding H3 (h) (ag); conditions: read-out: % Inhibition of Control Specific Binding @ 10 μM
T6 construct: expressed in transfected cells; host or cells: CHO cells
T6 sequence (Q9Y5N1 whole entry): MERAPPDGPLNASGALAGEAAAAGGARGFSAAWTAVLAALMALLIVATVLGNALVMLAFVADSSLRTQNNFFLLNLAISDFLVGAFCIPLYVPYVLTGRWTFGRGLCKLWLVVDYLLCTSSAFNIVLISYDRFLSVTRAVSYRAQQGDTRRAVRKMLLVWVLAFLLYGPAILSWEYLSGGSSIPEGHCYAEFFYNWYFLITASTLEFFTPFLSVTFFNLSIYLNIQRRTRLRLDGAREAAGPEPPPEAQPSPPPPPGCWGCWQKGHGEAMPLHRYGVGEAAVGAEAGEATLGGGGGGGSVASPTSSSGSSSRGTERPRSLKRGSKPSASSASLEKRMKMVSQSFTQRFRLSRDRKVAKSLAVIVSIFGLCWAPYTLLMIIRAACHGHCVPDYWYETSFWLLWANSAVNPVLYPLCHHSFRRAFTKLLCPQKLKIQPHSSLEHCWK
Protocol: as §1, §2

T1 sequence (P09483 31-630): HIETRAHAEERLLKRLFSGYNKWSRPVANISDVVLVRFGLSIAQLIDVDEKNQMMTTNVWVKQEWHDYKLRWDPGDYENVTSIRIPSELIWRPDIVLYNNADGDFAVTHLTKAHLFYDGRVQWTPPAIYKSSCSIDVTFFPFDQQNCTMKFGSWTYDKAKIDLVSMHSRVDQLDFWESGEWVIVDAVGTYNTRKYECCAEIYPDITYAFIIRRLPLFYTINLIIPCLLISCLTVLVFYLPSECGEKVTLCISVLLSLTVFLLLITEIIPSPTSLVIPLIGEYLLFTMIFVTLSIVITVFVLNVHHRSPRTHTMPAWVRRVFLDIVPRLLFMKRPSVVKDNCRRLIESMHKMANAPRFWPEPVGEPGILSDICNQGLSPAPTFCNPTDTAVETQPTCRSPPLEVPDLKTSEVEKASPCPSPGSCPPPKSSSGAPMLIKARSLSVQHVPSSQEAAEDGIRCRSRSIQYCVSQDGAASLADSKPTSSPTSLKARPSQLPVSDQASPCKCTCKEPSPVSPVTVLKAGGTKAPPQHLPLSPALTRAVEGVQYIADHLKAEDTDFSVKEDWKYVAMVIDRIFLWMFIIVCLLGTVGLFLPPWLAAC
T1 sequence (P12390 25-500): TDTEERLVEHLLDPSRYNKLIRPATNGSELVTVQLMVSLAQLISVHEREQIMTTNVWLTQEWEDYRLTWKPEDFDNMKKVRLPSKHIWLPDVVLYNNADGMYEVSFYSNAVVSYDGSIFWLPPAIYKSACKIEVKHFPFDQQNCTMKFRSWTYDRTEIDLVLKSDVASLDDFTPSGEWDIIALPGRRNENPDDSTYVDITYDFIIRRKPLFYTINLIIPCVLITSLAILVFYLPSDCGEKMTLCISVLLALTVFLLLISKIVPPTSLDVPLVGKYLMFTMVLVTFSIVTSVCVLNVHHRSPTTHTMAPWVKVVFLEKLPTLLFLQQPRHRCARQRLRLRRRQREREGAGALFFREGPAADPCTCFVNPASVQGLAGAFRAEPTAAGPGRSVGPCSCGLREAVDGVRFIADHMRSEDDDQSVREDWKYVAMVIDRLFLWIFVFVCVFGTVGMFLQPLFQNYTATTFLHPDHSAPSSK

Compound | inhibition at 10 µM [1] | % Inhibition of Control Specific Binding @ 10 μM [2] | % Inhibition of Control Specific Binding @ 10 μM (KV channel) | inhibition at 10 µM (Adenosine A2A (h)) | inhibition at 10 µM (MAO-A (h)) | inhibition at 10 µM (Angiotensin AT2 (h)) | % Inhibition of Control Specific Binding @ 10 μM [3] | inhibition at 10 µM (Glucocorticoid GR (h)) | inhibition at 10 µM (Histamine H3 (h))
CC1(C)C(=O)N(c2ccc(C#N)c(C(F)(F)F)c2)C(=S)N1c1ccc(C(=O)O)c(F)c1 [(MI), 4-(3-(4-cyano-3-(trifluoromethyl)phenyl)-5,5-dimethyl-4-oxo-2-thioxoimidazolidin-1-yl)-2-fluorobenzoic acid] | 0% | 47% | −2% | 10% | -5% | -1% | 16% | 5% | -3%
CC1(C)C(=O)N(c2ccc(C#N)c(C(F)(F)F)c2)C(=O)N1c1ccc(C(N)=O)c(F)c1 [(MIII), 4-(3-(4-cyano-3-(trifluoromethyl)phenyl)-5,5-dimethyl-2,4-dioxoimidazolidin-1-yl)-2-fluorobenzamide] | -11% | 38% | −2% | 2% | 14% | -2% | −2% | 0% | -13%
CNC(=O)c1ccc(N2C(=O)N(c3ccc(C#N)c(C(F)(F)F)c3)C(=O)C2(C)C)cc1F [(MIV), 4-(3-(4-cyano-3-(trifluoromethyl)phenyl)-5,5-dimethyl-2,4-dioxoimidazolidin-1-yl)-2-fluoro-N-methylbenzamide] | -3% | 36% | −4% | 3% | 11% | 1% | 16% | 4% | -4%
CC1(C)C(=O)N(c2ccc(C#N)c(C(F)(F)F)c2)C(=S)N1c1ccc(C(N)=O)c(F)c1 [(MII), 4-(3-(4-Cyano-3-(trifluoromethyl)phenyl)-5,5-dimethyl-4-oxo-2-thioxoimidazolidin-1-yl)-2-fluorobenzamide] | -3% | 81% | −3% | -5% | 0% | -6% | 18% | 30% | -2%

Source: patent US8524755B2 (priority 2009, dated 2013)
